Literature values in patent EP1677774B1, “CITICOLINE-BASED COMPOSITION IN COMBINATION WITH VITAMINS FOR THE PREVENTION AND TREATMENT OF EYE PATHOLOGIES” (Bausch & Lomb IOM S.p.A., priority 2003, dated 2005).

Assays:
glaucomatous patients = conditions: intramuscular administration

## C[N+](C)(C)CCOP(=O)(O)OP(=O)([O-])OC[C@H]1O[C@@H](n2ccc(N)nc2=O)[C@H](O)[C@@H]1O [CDP-choline, cytidine-5'-diphosphocholine]
Intravenous or oral administration
  metabolic fate after administration: immediately hydrolysed and converted into the two circulating metabolites cytidine and choline
Oral compared with intravenous administration
  calculated bioavailability for oral administration: virtually the same as the one calculated for intravenous administration
Glaucomatous patients; long-term clinical studies
  effect on the optic nerve (perimetric measures): positive effect on the damaged optic nerve
Glaucomatous patients; short-term clinical study
  retinal and supraretinal signal conduction: functional improvement
